# Results from patent publication US8877747B2, “Indenone derivative and pharmaceutical composition comprising same” (Korea Research Institute of Chemical Technology, priority 2009, dated 2014).
# Structures can show the parent of a compound that is named as a salt.
# Assays:
# [1] = test system: ovariectomized female DDY mice; experiment: Bone density after ovariectomy, in-vivo micro-CT; parameters: species or system mouse; settings: oral once a day for 4 weeks
# Excerpt: (§1) Most pharmacological effectiveness of therapeutic agents for osteoporosis has been evaluated using an animal, rather than a human. Particularly, as a model animal for osteoporosis occurring after menopause, ovariectomized female rats have been used for its similarity to women after menopause. To examine the effects of the indenone derivatives on the bone resorption, female SD rats and female DDY mice were subjected to ovariectomy. After the rats or mice were anesthetized by abdominally injecting 25 mg/kg of sodium pentobarbital (Choongwae pharma coporation), the fur of the abdominal region was shaved and the operation area was sterilized. About 1.5 cm of abdominal skin, abdominal muscle, and peritoneum were cut in the middle under aseptic condition, and ovary was exposed, followed by removal of both left and right ovaries after ligaturing of oviducts using silk threads. Then, peritoneum, abdominal muscle and skin were sutured with silk threads. The Sham group, animals operated upon for the surgery as in the ovariectomized rats except for removing ovary, was employed to compare the effects. […]
# MC3T3-E1 cells = experiment: ALP activity, differentiation of osteoblast cells; format: cell-based; settings: Mus musculus, MC3T3-E1, 144 h; MC3T3E1 cells treated with 10 μM compound and OF; relates activity to OF-only group (100%); higher = more efficacious
# Method in brief: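 MC3T3-E1 cells were cultured 6 days at 37 °C in osteogenic medium (ascorbic acid, β-glycerophosphate) with compound at 0.1, 1 and 10 μM; medium and compound were renewed every 2-3 days. Freeze-thaw lysates were protein-normalised and ALP activity was read with 4-nitrophenylphosphate; DMSO and OF-only groups served as comparators.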
# [2] = test system: ovariectomized female SD rats; experiment: Bone density after ovariectomy, in-vivo micro-CT; parameters: species or system rat; settings: oral once a day for 4 weeks
# Excerpt: as §1
compound,measurement,setting,value
"O=C1C(c2cccnc2)=C(c2ccccc2)c2ccc(OCCN3CCOCC3)cc21 [Example 1, 6-(2-morpholinoethoxy)-3-phenyl-2-(pyridin-3-yl)-1H-inden-1-one hydrochloride salt]",Bone density (FIG. 3A),[1],significantly increased
same,activity at 10 µM,MC3T3-E1 cells,455%
same,Bone density (FIG. 3B),[2],significantly increased
